Assay [1] deals with T cells expressing anti-CD19 CAR/PSMA^(N9del). Briefly: Cytokine release in co-culture in the presence of DCFPyL. Format: cell-based, human. Particulars: E:T 4:1 and 1:1; eight 3-fold serial dilutions of DCFPyL starting from 1×10^−5 M. Here is the method:
Specifically, accumulated amounts (pg/mL) of cytokine(s) (IL-2, IFN-gamma, TNF-alpha) were assessed following incubation of the target cells and the various populations of engineered cells, for a period of approximately 22-24 hours. Such assays provided a measure of antigen-specific cytokine secretion per CAR+ cell in the dose. In other assays, cytolytic activity against CD19-expressing target cells was assessed after incubation with the T cells.
Cytokine amounts in culture supernatants were determined using a multiplex cytokine immunoassay (Luminex®).

For assay [2] the test system is unchanged. Briefly: Cytolytic assay in the presence of DCFPyL. The class given is cell-based, human. Particulars: E:T 4:1; seven 3-fold serial dilutions of DCFPyL starting from 3.33×10^−6 M. Here is the method:
Cytolytic activity was assessed by measuring the loss of viable target cells over a period of three days, as determined by red fluorescent signal (using the IncuCyte® Live Cell Analysis System, Essen Bioscience). The number of NLR+ target cells was determined every 2 hours over time from 0 hours to 66 hours. Where indicated, a killing index was determined as 1/area under the curve (AUC) of the NLR+ target cell count over time, from 0 hours to 66 hours.
Specifically, co-cultures were incubated with DCFPyL at one of seven (7) 3-fold serial dilutions of DCFPyL starting from 3.33×10^−6 M, or were incubated without DCFPyL (0 M).

As for `O=C(O)CCC(NC(=O)NC(CCCCNC(=O)c1ccc(F)nc1)C(=O)O)C(=O)O` (centres unmarked) [DCFPyL, 2-(3-{1-carboxy-5-[(6-fluoro-pyridine-3-carbonyl)-amino]-pentyl}-ureido)-pentanedioicacid], in assay [1], the “effect on IFN-γ production” value is listed as “did not substantially affect”. For the same compound, in assay [2], the “effect on cytolytic activity of T cells expressing anti-CD19 CAR/PSMA^(N9del)” value is on record as “did not affect”.
